According to US10869465B2, “Transgenic mouse model of retinal vascular disease, method of making, and method of using” (OSAKA UNIVERSITY, priority 2017, dated 2020):

What was measured:
Format in all cases: in vivo
[1] = test system: retina of the constitutively active Akt-Mer Tg mouse; experiment: Retina cup observation by optical microscope after persistent activation of Akt (Example 3); details: 4-OHT i.p. 100 μg/day×3 days, 4th to 6th day after birth; observed 7th day; vs mouse without 4-OHT
Method: In this example, an influence of the persistent activation of Akt on the retina in the constitutively active Akt-Mer Tg mouse produced in Example 1 was investigated. Here, the influence on the retina was confirmed by observing the retina of the constitutively active Akt-Mer Tg mouse in which Akt had been persistently activated using an optical microscope.
To the constitutively active Akt-Mer Tg mouse produced in Example 1, 10 μg/μl 4-OHT was intraperitoneally administered at a dose of 10 μl per day from the fourth day to the sixth day after birth (total dose was 100 μg/day×3 days). On the seventh day after birth, perfusion fixation from the heart was performed using 4% paraformaldehyde (abbreviated as “PFA” hereinafter). Then, a retinal cup was produced from the removed eyeball, and an optical micrograph showing the retina was obtained using MZ16F (Leica). A mouse to which 4-OHT was not administered was used as a control and subjected to the same treatment, and then an image was obtained.

[2] = test system: retina of the constitutively active Akt-Mer Tg mouse; experiment: Whole-mount immunostaining (anti PECAM-1) of the retina, retinal vascular morphology (Examples 4, 5)
Method: (§1) To the constitutively active Akt-Mer Tg mouse produced in Example 1, 10 μg/μl 4-OHT was intraperitoneally administered at a dose of 10 μl per day from the fourth day to the sixth day after birth (total dose was 100 μg/day×3 days). On the seventh day after birth, perfusion fixation from the heart was performed using 4% PFA, and then a retinal cup was produced from the removed eyeball. Fluorescent immunostaining using an anti PECAM-1 (platelet endothelial cell adhesion molecule-1: CD31) antibody was performed to stain vascular endothelial cells. Subsequently, a flat-mount image of the retina was obtained using AxioObserver (Zeiss). A mouse to which 4-OHT was not administered was used as a control and subjected to the same treatment, and then an image was obtained.
For the purpose of further investigating the retinal vascular morphology in detail, the vascular lengths and vascular diameters were measured. Specifically, regarding the vascular lengths, a distance from the peripheral edge of the optic papilla to the leading end of the extending blood vessel along a vein was measured using Photoshop CS5 software. The vascular lengths at four positions in one retina were measured and quantified. Regarding the arterial diameters and venous diameters, the thickness of arteries and veins located on the circumference of a circle with a radius of 1500 μm about the optical papilla was measured also using Photoshop CS5 software (**<0.01).
as §1, with “1, 1” for “1, 10”, “was 10” for “was 100”, “days). This dose was one tenth of the dose in the previous examples.” for “days).”, “was produced.” for “was produced from the removed eyeball.”, “PECAM-1 (CD31)” for “PECAM-1 (platelet endothelial cell adhesion molecule-1: CD31)”, “was performed, and” for “was performed to stain vascular endothelial cells. Subsequently,”
For the purpose of further investigating the retinal vascular morphology in detail, the number of microaneurysms was measured. Specifically, regarding the measurement of the number of microaneurysms, the number of microaneurysms in one retina was manually measured using the flat-mount image of the retina.

[3] = test system: retina of the constitutively active Akt-Mer Tg mouse; experiment: Retinal vascular permeability, Evans blue leakage (Example 6); details: 4-OHT i.p. 10 μg/μl, 10 μl per day, 4th to 6th day after birth
Method: To the constitutively active Akt-Mer Tg mouse produced in Example 1, 10 μg/μl 4-OHT was intraperitoneally administered at a dose of 10 μl per day from the fourth day to the sixth day after birth (total dose was […]). On the seventh day after birth, 20 μl of Evans blue was intraperitoneally administered, and 1 hour after this, perfusion fixation from the heart was performed using 4% PFA, and then, the eyeball was removed. An image of the removed eyeball was obtained using an MZ16F stereoscopic microscope (Leica). A mouse to which 4-OHT was not administered was used as a control and subjected to the same treatment, and then an image was obtained.
Furthermore, for the purpose of evaluating the vascular permeability in a quantitative manner, the fluorescence intensity of Evans blue leaking from the retinal blood vessels was measured using an LSM710 confocal microscope (Zeiss) (***<0.001).

[4] = test system: retina of the constitutively active Akt-Mer Tg mouse; experiment: Retinal cryosection with Hoechst staining, retinal surface layer (Example 7); details: 4-OHT i.p. 100 μg/day×3 days; 7th day after birth; vs control
Method: To the constitutively active Akt-Mer Tg mouse produced in Example 1, 10 μg/μl 4-OHT was intraperitoneally administered at a dose of 10 μl per day from the fourth day to the sixth day after birth (total dose was 100 μg/day×3 days). On the seventh day after birth, perfusion fixation from the heart was performed using 4% PFA. The eyeball was removed, and then a retinal cryosection was produced. The nuclei were visualized through Hoechst staining, and an image was obtained using a microscope (Zeiss). A mouse to which 4-OHT was not administered was used as a control and subjected to the same treatment, and then an image was obtained.

[5] = 4-OHT i.p. 100 μg/day×3 days, observed 7th day after birth, vs control

For 4-hydroxytamoxifen [4-OHT], the retinal hemorrhage [1] was “punctuate retinal hemorrhage was observed”, the “number of microaneurysms in one retina (average)” value ([2]; 4-OHT i.p. 10 μg/day×3 days, 7th day after birth, hardly observed in control) was 90 and the vascular network formation ([2]; 4-OHT i.p. 100 μg/day×3 days, 4th to 6th day after birth, observed 7th day, vs control) was “the formation of a dense vascular network was observed”. For the same substance, the formation of microaneurysms ([2]; 4-OHT i.p. 100 μg/day×3 days, observed 7th day after birth) was “the formation of microaneurysms, which have a varicose structure, was induced”, the “extension of blood vessels” value [2, 5] was “the extension of blood vessels was delayed compared with the control” and the “vascular diameters (arteries, veins, capillaries)” value [2, 5] was “the overall retinal blood vessels significantly expanded”. For the same substance, the formation of microaneurysms ([2]; low-concentration 4-OHT i.p. 10 μg/day×3 days, observed 7th day after birth) was “the formation of microaneurysms was also induced”, the “vascular permeability (leakage of Evans blue from blood vessels)” value ([3]; Evans blue i.p. on 7th day, 1 hour) was “the vascular permeability was increased” and the “fluorescence intensity of Evans blue leaking from the retinal blood vessels” value ([3]; confocal microscope, ***<0.001 vs control) was “significantly larger than that in the control”. For the same substance, the “swelling of overall retina, particularly the surface layer” value [4] was “significantly swollen”.
